Experimental data from patent publication US6066628A, “Non-iron metalloporphyrins and methods of use” (Emory University, priority 1998, dated 2000).
Values after ≈ are worked out from the molar mass of the structure shown. Like-named read-outs stand apart in the source and are kept apart here.

Tests used:
N. meningitidis = test: Disc diffusion sensitivity test; format: cell-based; conditions: disc ~50 μg MP
S. aureus [1] = format: cell-based, Staphylococcus aureus; conditions: for MIC: Staphylococcus aureus; for Minimal inhibitory concentration (MIC): methicillin-resistant S. aureus IR219, Nutrient broth (Table 2); for antibacterial activity: S. aureus
E. coli = test: Disc diffusion sensitivity test; format: cell-based, Escherichia coli; conditions: E. coli; disc ~50 μg MP
Ps. aeruginosa = test: Disc diffusion sensitivity test; format: cell-based, Pseudomonas aeruginosa; conditions: disc ~50 μg MP; further: key: -: resistant; N: not determined
E. aerogenes = test: Disc diffusion sensitivity test; format: cell-based, Enterobacter aerogenes; conditions: E. aerogenes; disc ~50 μg MP
Y. enterocolitica [2] = test: Disc diffusion sensitivity test; format: cell-based; conditions: disc ~50 μg MP
K. oxytoca = test: Disc diffusion sensitivity test; format: cell-based, Klebsiella oxytoca; conditions: K. oxytoca; disc ~50 μg MP
K. pneumoniae = test: Disc diffusion sensitivity test; format: cell-based, Klebsiella pneumoniae; conditions: K. pneumoniae; disc ~50 μg MP
P. mirabills = test: Disc diffusion sensitivity test; format: cell-based, Proteus mirabilis; conditions: P. mirabilis; disc ~50 μg MP
F. menigosepticum = test: Disc diffusion sensitivity test; format: cell-based, Flavobacterium meningosepticum; conditions: F. meningosepticum; disc ~50 μg MP
B. subtilis = test: Disc diffusion sensitivity test; format: cell-based, Bacillus subtilis; conditions: for diameter (mm) of the inhibition zone: B. subtilis, disc ~50 μg MP
C. freundii = test: Disc diffusion sensitivity test; format: cell-based, Citrobacter freundii; conditions: C. freundii; disc ~50 μg MP
S. aureus [3] = test: Disc diffusion sensitivity test; format: cell-based, Staphylococcus aureus; conditions: for diameter (mm) of the inhibition zone: S. aureus, disc ~50 μg MP
E. faecalis = test: Disc diffusion sensitivity test; format: cell-based, Enterococcus faecalis; conditions: disc ~50 μg MP; further: key: -: resistant; N: not determined
Y. enterocolitica [4] = test: Competition of heme/protoporphyrin IX with Ga-PPIX antibacterial activity
M. smegmatis [5] = format: cell-based, Mycobacterium smegmatis; conditions: M. smegmatis LR222; for Minimal inhibitory concentration (MIC): LB + Tween 80 (Table 2)
S. aureus [6] = test: Minimal bactericidal concentration; format: cell-based, Staphylococcus aureus; conditions: reduces plating efficiency more than 99.9%, minimal exposure to light
Method: Minimal bactericidal concentrations (MBCs) were determined essentially the same way as MICs except that the amount of killing with a particular concentration of porphyrin derivative was determined by plating on solid microbiological media (LB plates or LB+Tween 80). Media were solidified by the incorporation of 1.5% agar (Difco Laboratories). Concentrations of porphyrins that produced 99.9% reduction in bacterial counts were considered bactericidal [Hindler et al. (1994) supra].
MBC were determined by plating bacterial cultures that have been incubate
in the presence of MPs at concentrations higher than MIC. MBC was defined
as a concentration of a particular MP which reduces the plating efficienc
more than 99.9%. Experiments were done with minimal exposure to light
(addition of porphyrins waa done in the presence of artifical light).

S. aureus [7] = test: Competition of heme/protoporphyrin IX with Ga-PPIX antibacterial activity; format: cell-based, Staphylococcus aureus
Y. enterocolitica [8] = test: Minimal bactericidal concentration; format: cell-based; conditions: reduces plating efficiency more than 99.9%, minimal exposure to light
bacteria = format: cell-based; conditions: porphyrins without Ga ions; all tested bacteria
M. smegmatis [9] = test: Minimal bactericidal concentration; format: cell-based, Mycobacterium smegmatis; conditions: reduces plating efficiency more than 99.9%, minimal exposure to light
M. smegmatis [10] = test: Competition of heme/protoporphyrin IX with Ga-PPIX antibacterial activity
Y. enterocolitica [11] = test: microbe, parasite or virus in culture; format: cell-based
M. bovis = format: cell-based, Mycobacterium bovis; conditions: disc ~50 μg MP
S. marcescens = test: Disc diffusion sensitivity test; format: cell-based, Serratia marcescens; conditions: S. marcescens; disc ~50 μg MP
M. smegmatis [12] = test: Disc diffusion sensitivity test; format: cell-based, Mycobacterium smegmatis; conditions: disc ~50 μg MP
S. crevisieae = test: Disc diffusion sensitivity test; format: cell-based, Saccharomyces cerevisiae; conditions: S. cerevisiae; disc ~50 μg MP
[13] = +1 μg/ml Ga-PPIX, competitor 1 μg/ml
[14] = +1 μg/ml Ga-PPIX, competitor 10 μg/ml
[15] = +1 μg/ml Ga-PPIX, competitor 20 μg/ml
[16] = +1 μg/ml Ga-PPIX, competitor 100 μg/ml
[17] = -1 μg/ml Ga-PPIX (without Ga-PPIX), 1 μg/ml
[18] = -1 μg/ml Ga-PPIX (without Ga-PPIX), 10 μg/ml
[19] = -1 μg/ml Ga-PPIX (without Ga-PPIX), 20 μg/ml
[20] = -1 μg/ml Ga-PPIX (without Ga-PPIX), 100 μg/ml

In the case of `C=CC1=C(C)C2=Cc3c(C=C)c(C)c4[n]3[Mg][n]3c(c(C)c(CCC(=O)O)c3=CC3=NC(=C4)C(C)=C3CCC(=O)O)=CC1=N2` [Mg-PPIX], the “diameter (mm) of the inhibition zone” value (N. meningitidis) is reported as “-”, the MIC (S. aureus [1]; read-out: Minimal inhibitory concentration (MIC)) is reported as > 10 µg/mL and the “diameter (mm) of the inhibition zone” value (E. coli) is reported as “-”. For the same molecule, the “diameter (mm) of the inhibition zone” value (Ps. aeruginosa) was “-”, the “diameter (mm) of the inhibition zone” value (E. aerogenes) was “-” and the “diameter (mm) of the inhibition zone” value (Y. enterocolitica [2]) was “-”. For the same molecule, the “diameter (mm) of the inhibition zone” value (K. oxytoca) was “-”, the “diameter (mm) of the inhibition zone” value (K. pneumoniae) was “-” and the “diameter (mm) of the inhibition zone” value (P. mirabills) was “-”. For the same molecule, the “diameter (mm) of the inhibition zone” value (F. menigosepticum) was “-”, the zone of inhibition at 50 µg/disc (B. subtilis; Bacillus subtilis, read-out: diameter (mm) of the inhibition zone) was 15 mm and the “diameter (mm) of the inhibition zone” value (C. freundii) was “-”. The zone of inhibition at 50 µg/disc (S. aureus [3]; Staphylococcus aureus, read-out: diameter (mm) of the inhibition zone) was 15 mm and the “diameter (mm) of the inhibition zone” value (E. faecalis) was “-”.

With `C=CC1=C(C)c2cc3[nH]c(cc4nc(cc5[nH]c(cc1n2)c(C)c5CCC(=O)O)C(CCC(=O)O)=C4C)c(C)c3C=C` [PPIX, protoporphyrin IX] the MIC (S. aureus [1]; S. aureus IR2419, dark (Table 10), read-out: MIC) was 50 µg/mL (≈ 88.9 µM), the growth (Y. enterocolitica [4]; [13]) was “-” and the growth (Y. enterocolitica [4]; [14]) was “-”. For the same molecule, the growth (Y. enterocolitica [4]; [15]) was “-”, the growth (Y. enterocolitica [4]; [16]) was “-” and the growth (Y. enterocolitica [4]; [17]) was “+”. The growth (Y. enterocolitica [4]; [18]) was “+”, the growth (Y. enterocolitica [4]; [19]) was “+” and the growth (Y. enterocolitica [4]; [20]) was “-”. For the same molecule, the “antagonism of Ga-PPIX antibacterial activity” value (shortened to “antagonism”) (Y. enterocolitica [4]; Y. enterocolitica fur mutant) was “not able to antagonize”, the MIC (M. smegmatis [5]; Mycolicibacterium smegmatis, dark (Table 10), read-out: MIC) was > 40 µg/mL and the MBC (S. aureus [6]; Staphylococcus aureus) was > 40 µg/mL. The growth (S. aureus [7]; [13]) was “-”, the growth (S. aureus [7]; [14]) was “-” and the growth (S. aureus [7]; [15]) was “-”. The growth (S. aureus [7]; [16]) was “+”, the growth (S. aureus [7]; [17]) was “+” and the growth (S. aureus [7]; [18]) was “+”. For the same molecule, the growth (S. aureus [7]; [19]) was “+”, the growth (S. aureus [7]; [20]) was “+” and the “antagonism” value (S. aureus [7]; heme 10- to 100-fold molar excess, protoporphyrin IX 100-fold excess) was “some antagonizing effect”. For the same molecule, the MBC (Y. enterocolitica [8]; Yersinia enterocolitica) was > 40 µg/mL, the “MICs” value (bacteria) was “very large MICs” and the MBC (M. smegmatis [9]; Mycolicibacterium smegmatis) was > 20 µg/mL. For the same molecule, the growth (M. smegmatis [10]; [13]) was “-”, the growth (M. smegmatis [10]; [15]) was “+” and the growth (M. smegmatis [10]; [16]) was “+”. For the same molecule, the growth (M. smegmatis [10]; [17]) was “+”, the growth (M. smegmatis [10]; [18]) was “+” and the growth (M. smegmatis [10]; [19]) was “+”. The growth (M. smegmatis [10]; [20]) was “+” and the “antagonism” value (M. smegmatis [10]; heme 10- to 100-fold molar excess, protoporphyrin IX 20- and 100-fold excess) was “antagonized”.

With `C=CC1=C(C)c2cc3[n-]c(cc4nc(cc5[n-]c(cc1n2)c(C)c5CCC(=O)O)C(CCC(=O)O)=C4C)c(C)c3C=C.[Pd+2]` [Pd-PPIX] the “diameter (mm) of the inhibition zone” value (N. meningitidis) was “-”, the “Minimal inhibitory concentration (MIC)” value (S. aureus [1]) was 50 µg/mL and the “diameter (mm) of the inhibition zone” value (E. coli) was “-”. The “diameter (mm) of the inhibition zone” value (Ps. aeruginosa) was “-”, the “diameter (mm) of the inhibition zone” value (E. aerogenes) was “-” and the “Minimal inhibitory concentration (MIC)” value (Y. enterocolitica [11]) was > 40. The “Minimal inhibitory concentration (MIC)” value (M. smegmatis [5]) was 20 µg/mL, the “diameter (mm) of the inhibition zone” value (M. bovis) was “-” and the “diameter (mm) of the inhibition zone” value (K. oxytoca) was “-”. The “diameter (mm) of the inhibition zone” value (K. pneumoniae) was “-”, the “diameter (mm) of the inhibition zone” value (P. mirabills) was “-” and the “diameter (mm) of the inhibition zone” value (F. menigosepticum) was “-”. For the same molecule, the “diameter (mm) of the inhibition zone” value (C. freundii) was “-”, the “diameter (mm) of the inhibition zone” value (S. marcescens) was “-” and the “diameter (mm) of the inhibition zone” value (S. aureus [3]) was “-”. For the same molecule, the “diameter (mm) of the inhibition zone” value (E. faecalis) was “-”.

In the case of `C=CC1=C(C)c2cc3[n-]c(cc4nc(cc5[n-]c(cc1n2)c(C)c5CCC(=O)O)C(CCC(=O)O)=C4C)c(C)c3C=C.[Ru+2]` [Ru-PPIX], the “diameter (mm) of the inhibition zone” value (N. meningitidis) is reported as 11 mm, the “antibacterial activity” value (S. aureus [1]) is reported as “some activity” and the “Minimal inhibitory concentration (MIC)” value (S. aureus [1]) is reported as 5 µg/mL. For the same molecule, the “diameter (mm) of the inhibition zone” value (M. smegmatis [12]) was “-”, the “diameter (mm) of the inhibition zone” value (Ps. aeruginosa) was “-” and the “Minimal inhibitory concentration (MIC)” value (Y. enterocolitica [11]) was > 40. For the same molecule, the “Minimal inhibitory concentration (MIC)” value (M. smegmatis [5]) was 20 µg/mL, the “Minimal bactericidal concentration (MBC)” value (S. aureus [6]) was 10 and the “diameter (mm) of the inhibition zone” value (Y. enterocolitica [2]) was “-”. For the same molecule, the “Minimal bactericidal concentration (MBC)” value (Y. enterocolitica [8]) was > 40, the “diameter (mm) of the inhibition zone” value (M. bovis) was “-” and the “diameter (mm) of the inhibition zone” value (F. menigosepticum) was “-”. For the same molecule, the “diameter (mm) of the inhibition zone” value (B. subtilis) was “-”, the “Minimal bactericidal concentration (MBC)” value (M. smegmatis [9]) was > 20 and the “diameter (mm) of the inhibition zone” value (S. marcescens) was “-”. The “diameter (mm) of the inhibition zone” value (S. aureus [3]) was 12 mm, the “diameter (mm) of the inhibition zone” value (E. faecalis) was “-” and the “diameter (mm) of the inhibition zone” value (S. crevisieae) was “-”.

For `C=CC1=C(C)c2cc3[n-]c(cc4nc(cc5[n-]c(cc1n2)c(C)c5CCC(=O)O)C(CCC(=O)O)=C4C)c(C)c3C=C.[Ti+2]` [Ti-PPIX], the “diameter (mm) of the inhibition zone” value (N. meningitidis) was “-”, the “Minimal inhibitory concentration (MIC)” value (S. aureus [1]) was 40 µg/mL and the “diameter (mm) of the inhibition zone” value (E. coli) was “-”. For the same molecule, the “diameter (mm) of the inhibition zone” value (Ps. aeruginosa) was “-”, the “diameter (mm) of the inhibition zone” value (E. aerogenes) was “-” and the “Minimal inhibitory concentration (MIC)” value (Y. enterocolitica [11]) was > 40. The “Minimal inhibitory concentration (MIC)” value (M. smegmatis [5]) was > 40 µg/mL, the “diameter (mm) of the inhibition zone” value (Y. enterocolitica [2]) was “-” and the “diameter (mm) of the inhibition zone” value (K. oxytoca) was “-”. The “diameter (mm) of the inhibition zone” value (K. pneumoniae) was “-”, the “diameter (mm) of the inhibition zone” value (P. mirabills) was “-” and the “diameter (mm) of the inhibition zone” value (F. menigosepticum) was “-”. For the same molecule, the “diameter (mm) of the inhibition zone” value (B. subtilis) was 12 mm, the “diameter (mm) of the inhibition zone” value (C. freundii) was “-” and the “diameter (mm) of the inhibition zone” value (S. aureus [3]) was “-”. The “diameter (mm) of the inhibition zone” value (E. faecalis) was “-”.

In the case of `C=CC1=C(C)c2cc3[n-]c(cc4nc(cc5[n-]c(cc1n2)c(C)c5C=C)C(C)=C4CCC(=O)O)c(CCC(=O)O)c3C.[Zn+2]` [Zn-PPIX], the “diameter (mm) of the inhibition zone” value (N. meningitidis) is reported as 10 mm, the “antibacterial activity” value (S. aureus [1]) is reported as “some activity” and the “Minimal inhibitory concentration (MIC)” value (S. aureus [1]) is reported as 3.2 µg/mL. The “diameter (mm) of the inhibition zone” value (M. smegmatis [12]) was “-”, the “diameter (mm) of the inhibition zone” value (Ps. aeruginosa) was “-” and the “Minimal inhibitory concentration (MIC)” value (Y. enterocolitica [11]) was > 40. The “Minimal inhibitory concentration (MIC)” value (M. smegmatis [5]) was 20 µg/mL, the “diameter (mm) of the inhibition zone” value (Y. enterocolitica [2]) was “-” and the “diameter (mm) of the inhibition zone” value (M. bovis) was “-”. The “diameter (mm) of the inhibition zone” value (B. subtilis) was “-”, the “diameter (mm) of the inhibition zone” value (S. marcescens) was “-” and the “diameter (mm) of the inhibition zone” value (S. aureus [3]) was 12 mm. The “diameter (mm) of the inhibition zone” value (E. faecalis) was “-” and the “diameter (mm) of the inhibition zone” value (S. crevisieae) was “-”.
